Measured values as given in patent publication US20120270238A1, “Peptides That Bind the Alpha-Fetoprotein (AFP) Receptor and Uses Thereof” (priority 2009, published 2012).
No end group written: not given here. *: point of attachment. FITC = O=C1OC2(c3ccc(O)cc3Oc3cc(O)ccc32)c2ccc(NC(=S)*)cc21

Experiments:
[1] = test system: MCF-7 cells (human breast cancer cell line); experiment: Uptake of FITC labelled peptide into MCF-7 cells; format: cell-based; conditions: FITC fluorescence; qualitative
Source text: FIGS. 10A and B show the results of this experiment. […] This experiment provides evidence that the peptides according to the present invention provide for intracellular delivery of bioactive agents to the interior of cells expressing AFPr, particularly cancer cells.

[2] = test system: cancer cell line that is known to have AFP receptors; experiment: Binding of FITC labelled peptide to cancer cells; format: cell-based; conditions: FITC at the N terminal; fluorescence; qualitative
[3] = test system: alpha-fetoprotein receptor present in MCF-7 cell extracts; experiment: Competitive ELISA with biotin labeled AFP on MCF-7 cell extract; format: binding, human; conditions: for inhibition (competition with AFP-biotin): constant AFP-biotin 0.5 μg/ml, plate coated with MCF-7 extract; for competition with biotin labeled AFP for the AFP receptor: qualitative, biotin labeled AFP 0.5 ug/ml
Procedure: To see if the enzymatic digests were still biologically active, the enzymatic digests were used in a competitive based ELISA with whole AFP molecule labeled with biotin. The ability of the enzymatic digest dilutions to compete for the alpha-fetoprotein receptor present in MCF-7 cell extracts was determined using a constant 0.5 ug/ml of biotin labeled AFP. […] This fragment was run on a gradient tricine gel, transferred to a PVDF membrane and sent for N terminal sequencing. Results gave the amino acid (AA) sequence V-N-P-G . . . corresponding to AA 493 to 496 of Human AFP as published in Uniprot Data base (FIG. 2).
A plate can be coated with an extract of a cancer cell line known to have AFP receptors (for example, MCF-7). The plate is coated at 100 ug/ml total protein concentration and the peptide to be tested and AFP biotin is mixed with an initial peptide concentration of 250 μg/ml and subsequent half dilutions made. […] (FIG. 3). This assay was repeated with subsequent peptides synthesized in order to determine the smallest amino acid chain that would compete along with other peptides not in this region of the AFP molecule as well as from a different species.

[4] = biological target: alpha-fetoprotein receptor (AFP receptor) (human); experiment: competition assay, plate coated with MCF-7 extract, AFP-biotin constant at 0.5 µg/ml

FITC labeled Fragment 4: Fragment 4 synthesized with FITC at the N terminal ({FITC}-LQTMKQEFLIN)
uptake into MCF-7 human breast cancer cells [1]: uptake | binding to cancer cells [2]: demonstrated binding

HKDLCQAQGVALQTMKQEFLIN [Fragment 3, amino acids 534-555 of human AFP]
inhibition (competition with AFP-biotin) ([3]; peptide 7.8 μg/ml): 50% | inhibition (competition with AFP-biotin) ([3]; peptide 250 μg/ml): 85% | competition with biotin labeled AFP for the AFP receptor [3]: found to compete

KQEFLIN [amino acids 549-555 of human AFP]
competition with biotin labeled AFP for the AFP receptor [3]: found to compete

HKDLCQAQGVALQTMKQEFLIN [Fragment 3, …]
% inhibition at 7.8 µg/ml [4]: 50% | % inhibition at 250 µg/ml [4]: 85%
